The target in assay [1] is Glycogen synthase kinase-3 beta (Homo sapiens) (UniProt P49841). In words: Inhibition of human recombinant GSK3beta.
The target of assay [2] is Cyclin-dependent kinase 9/cyclin T1 (Homo sapiens). Put plainly: Inhibition of CDK9/cyclin T1 (unknown origin).
In assay [3] the target is Glycogen synthase kinase-3 alpha (Homo sapiens, UniProt P49840). In words: Inhibition of human recombinant GSK3alpha.
Glycogen synthase kinase-3 alpha, sequence (P49840 whole entry): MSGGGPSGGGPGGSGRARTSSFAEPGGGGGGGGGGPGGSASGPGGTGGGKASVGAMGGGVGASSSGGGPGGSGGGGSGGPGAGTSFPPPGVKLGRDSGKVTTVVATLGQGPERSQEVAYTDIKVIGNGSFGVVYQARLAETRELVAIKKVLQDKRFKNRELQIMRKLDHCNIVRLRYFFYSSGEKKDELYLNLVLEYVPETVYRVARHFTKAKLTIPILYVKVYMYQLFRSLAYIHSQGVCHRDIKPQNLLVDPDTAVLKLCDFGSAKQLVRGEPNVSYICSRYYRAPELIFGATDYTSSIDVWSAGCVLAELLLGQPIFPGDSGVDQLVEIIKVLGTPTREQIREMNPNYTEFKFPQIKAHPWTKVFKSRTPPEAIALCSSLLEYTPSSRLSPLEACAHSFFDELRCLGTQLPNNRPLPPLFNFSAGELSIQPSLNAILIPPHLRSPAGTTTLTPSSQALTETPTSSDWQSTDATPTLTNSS

Glycogen synthase kinase-3 beta (Homo sapiens), sequence (P49841 whole entry, looked up): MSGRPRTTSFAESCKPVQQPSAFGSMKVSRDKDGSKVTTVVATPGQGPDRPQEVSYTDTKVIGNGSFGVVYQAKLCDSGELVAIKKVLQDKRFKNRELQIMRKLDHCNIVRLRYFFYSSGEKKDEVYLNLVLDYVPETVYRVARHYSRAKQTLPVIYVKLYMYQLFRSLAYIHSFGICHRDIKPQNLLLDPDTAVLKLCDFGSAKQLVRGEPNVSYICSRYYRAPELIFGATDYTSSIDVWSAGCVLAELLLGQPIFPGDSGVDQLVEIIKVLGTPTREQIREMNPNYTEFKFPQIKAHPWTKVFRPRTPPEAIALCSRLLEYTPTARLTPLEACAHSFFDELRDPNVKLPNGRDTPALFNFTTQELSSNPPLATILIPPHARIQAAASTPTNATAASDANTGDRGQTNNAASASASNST

Consider `CCN1CCC(NC(=O)c2c(C)noc2C(C)C)CC1` [Name not given], for which the IC50 (in general, the concentration that inhibits the measured activity by half) in assay [1] is 9.1 µM.

As to `COc1cc(CC(=O)Nc2cc(C3CCC3)[nH]n2)cc(OC)c1OC`, the IC50 in assay [2] was 5.71 µM.

Consider `COc1ncccc1C(=O)Nc1cc(S(C)(=O)=O)ccc1N1CCC(Oc2ccc(F)cc2F)CC1` [Name not given], for which the IC50 in assay [3] turned out to be 2.3 µM.
